Patent US9695155B2, “Herbicidal substituted pyrimidinyloxy benzene compounds” (E. I. DU PONT DE NEMOURS AND COMPANY, priority 2013, dated 2017)

What was measured:
goosegrass = experiment: Test E preemergence; type: in vivo, Eleusine indica; conditions: for Goosegrass plant response rating: scale 0 to 100 (0 no effect, 100 complete control)
From the text: (§1) Seeds of plant species selected from corn (Zea mays), soybean (Glycine max), velvetleaf (Abutilon theophrasti), lambsquarters (Chenopodium album), wild poinsettia (Euphorbia heterophylla), palmer pigweed (Amaranthus palmeri), waterhemp (common waterhemp, Amaranthus rudis), surinam grass (Brachiaria decumbens), large (Lg) crabgrass (Digitaria sanguinalis), Brazilian crabgrass (Digitaria horizontalis), fall panicum (Panicum dichotomiflorum), giant foxtail (Setaria faberii), green foxtail (Setaria viridis), goosegrass (Eleusine indica), johnsongrass (Sorghum halepense), ragweed (common ragweed, Ambrosia elatior), barnyardgrass (Echinochloa crus-galli), sandbur (southern sandbur, Cenchrus echinatus), arrowleaf sida (Sida rhombifolia), Italian ryegrass (Lolium multiflorum), dayflower (Virginia (VA) dayflower, Commelina virginica), field bindweed (Convolvulus arvensis), morningglory (Ipomoea coccinea), nightshade (eastern black nightshade, Solanum ptycanthum), kochia (Kochia scoparia), yellow nutsedge (Cyperus esculentus), cocklebur (common cocklebur, Xanthium strumarium), smartweed (ladysthumb smartweed, and hairy beggarticks (Bidens pilosa), were planted into a silt loam soil and treated preemergence with test chemicals formulated in a non-phytotoxic solvent mixture which included a surfactant.
(§2) At the same time, plants from these crop and weed species and also horseweed (Canada horseweed, Conyza canadensis), waterhemp_RES1, (ALS & Triazine resistant common waterhemp, Amaranthus rudis), and waterhemp_RES2, (ALS & HPPD resistant common waterhemp, Amaranthus rudis) were planted in pots containing Redi-Earth® planting medium (Scotts Company, 14111 Scottslawn Road, Marysville, Ohio 43041) comprising spaghnum peat moss, vermiculite, wetting agent and starter nutrients were treated with postemergence applications of test chemicals formulated in the same manner. Plants ranged in height from 2 to 18 cm for postemergence treatments (1- to 4-leaf stage). Treated plants and controls were maintained in a greenhouse for 14 to 21 days, after which time all species were compared to controls and visually evaluated. Plant response ratings, summarized in Table E, are based on a scale of 0 to 100 where 0 is no effect and 100 is complete control. A dash (-) response means no test result.

yellow nutsedge = experiment: Test E preemergence; type: in vivo, Cyperus esculentus; conditions: for Nutsedge, Yellow plant response rating: scale 0 to 100 (0 no effect, 100 complete control)
From the text: as §1, §2

corn = experiment: Test E preemergence; type: in vivo, Zea mays; conditions: for Corn plant response rating: scale 0 to 100 (0 no effect, 100 complete control)
From the text: as §1, §2

large (Lg) crabgrass = experiment: Test E preemergence; type: in vivo, Digitaria sanguinalis; conditions: for Crabgrass, Large plant response rating: scale 0 to 100 (0 no effect, 100 complete control)
From the text: as §1, §2

palmer pigweed = experiment: Test E preemergence; type: in vivo, Amaranthus palmeri; conditions: for Pigweed, Palmer plant response rating: scale 0 to 100 (0 no effect, 100 complete control)
From the text: as §1, §2

waterhemp = experiment: Test E preemergence; type: in vivo, Amaranthus rudis; conditions: for Waterhemp plant response rating: scale 0 to 100 (0 no effect, 100 complete control)
From the text: as §1, §2

wild poinsettia = experiment: Test E preemergence; type: in vivo, Euphorbia heterophylla; conditions: for Poinsettia, Wild plant response rating: scale 0 to 100 (0 no effect, 100 complete control)
From the text: as §1, §2

sandbur = experiment: Test E preemergence; type: in vivo, Cenchrus echinatus; conditions: for Sandbur plant response rating: scale 0 to 100 (0 no effect, 100 complete control)
From the text: as §1, §2

sedge, umbrella = experiment: Test C flooded paddy test; type: in vivo, Cyperus difformis; conditions: Flood, scale 0 to 100 (0 no effect, 100 complete control), 13 to 15 days
Method in brief: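 Test compounds are applied straight into paddy water held 3 cm above the soil surface, with that flood maintained for the whole test. After 13 to 15 days in the greenhouse, each species is scored visually relative to controls.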

[1] = 125 g ai/ha, scale 0 to 100, 0 no effect, 100 complete control
[2] = 8 g ai/ha, scale 0 to 100, 0 is no effect, 100 is complete control
[3] = 250 g ai/ha, scale 0 to 100, 0 no effect, 100 complete control

Row | Compound | Goosegrass plant response rating (goosegrass; 31 g ai/ha) | Goosegrass plant response rating (goosegrass; 62 g ai/ha) | Plant response rating, Goosegrass (goosegrass; [1]) | Nutsedge, Yellow plant response rating (yellow nutsedge; 31 g ai/ha) | Nutsedge, Yellow plant response rating (yellow nutsedge; 62 g ai/ha) | Plant response rating, Nutsedge, Yellow (yellow nutsedge; [1]) | Corn plant response rating (corn; 31 g ai/ha) | Corn plant response rating (corn; 62 g ai/ha) | Plant response rating, Corn (corn; [1]) | Crabgrass, Large plant response rating (large (Lg) crabgrass; 31 g ai/ha) | Crabgrass, Large plant response rating (large (Lg) crabgrass; 62 g ai/ha) | Plant response rating, Crabgrass, Large (large (Lg) crabgrass; [1]) | Pigweed, Palmer plant response rating (palmer pigweed; 31 g ai/ha) | Pigweed, Palmer plant response rating (palmer pigweed; 62 g ai/ha) | Plant response rating, Pigweed, Palmer (palmer pigweed; [1]) | Waterhemp plant response rating (waterhemp; 31 g ai/ha) | Waterhemp plant response rating (waterhemp; 62 g ai/ha) | Plant response rating, Waterhemp (waterhemp; [1]) | Poinsettia, Wild plant response rating (wild poinsettia; 31 g ai/ha) | Poinsettia, Wild plant response rating (wild poinsettia; 62 g ai/ha) | further results
1 | Cc1cnc(Oc2cccc(C#N)c2-n2cc(C#N)cn2)nc1 [Compound 90] | 0 | 5 | 50 | 0 | 0 | 0 | 0 | 0 | 0 | 40 | 75 | 98 | 0 | 0 | 65 | 0 | 20 | 100 | 35 | 70 | Goosegrass plant response rating (goosegrass; 16 g ai/ha): 0; Nutsedge, Yellow plant response rating (yellow nutsedge; 16 g ai/ha): 0; Corn plant response rating (corn; 16 g ai/ha): 0; Crabgrass, Large plant response rating (large (Lg) crabgrass; 16 g ai/ha): 30; Pigweed, Palmer plant response rating (palmer pigweed; 16 g ai/ha): 0; Waterhemp plant response rating (waterhemp; 16 g ai/ha): 0; Poinsettia, Wild plant response rating (wild poinsettia; 16 g ai/ha): 10; Plant response rating, Poinsettia, Wild (wild poinsettia; [1]): 75; Sandbur plant response rating (sandbur; 16 g ai/ha): 0; Sandbur plant response rating (sandbur; 31 g ai/ha): 0; Sandbur plant response rating (sandbur; 62 g ai/ha): 0; Plant response rating, Sandbur (sandbur; [1]): 0
2 | Fc1cnc(Oc2cccc(C(F)F)c2-n2cc(C(F)(F)F)cn2)nc1 [Compound 164] | 5 | 20 | 75 | 0 | 0 | 20 | 0 | 0 | 0 | 35 | 75 | 100 | 0 | 75 | 80 | 65 | 90 | 90 | 0 | 5 | Corn plant response rating (corn; 16 g ai/ha): 0; Crabgrass, Large plant response rating (large (Lg) crabgrass; 16 g ai/ha): 35; Plant response rating, Sedge, Umbrella (sedge, umbrella; 31 g ai/ha): 0; Plant response rating, Sedge, Umbrella (sedge, umbrella; 62 g ai/ha): 20; Plant response rating, Sedge, Umbrella (sedge, umbrella; 125 g ai/ha): 75; Plant response rating, Sedge, Umbrella (sedge, umbrella; 250 g ai/ha): 95; Plant response rating, Poinsettia, Wild (wild poinsettia; [1]): 30; Sandbur plant response rating (sandbur; 31 g ai/ha): 0; Sandbur plant response rating (sandbur; 62 g ai/ha): 0; Plant response rating, Sandbur (sandbur; [1]): 10
3 | FC(F)c1cccc(Oc2ncc(Cl)cn2)c1-n1cc(C(F)(F)F)cn1 [Compound 170] | 40 | 75 | 98 | 20 | 30 | 40 | 20 | 10 | 30 | 70 | 98 | 100 | 95 | 100 | 100 | 80 | 90 | 80 | 20 | 25 | Plant response rating, Goosegrass (goosegrass; [2]): 0; Plant response rating, Nutsedge, Yellow (yellow nutsedge; [2]): 0; Plant response rating, Corn (corn; [2]): 0; Corn plant response rating (corn; 16 g ai/ha): 0; Plant response rating, Crabgrass, Large (large (Lg) crabgrass; [2]): 0; Crabgrass, Large plant response rating (large (Lg) crabgrass; 16 g ai/ha): 0; Plant response rating, Pigweed, Palmer (palmer pigweed; [2]): 0; Plant response rating, Waterhemp (waterhemp; [2]): 0; Plant response rating, Poinsettia, Wild (wild poinsettia; [2]): 0; Plant response rating, Poinsettia, Wild (wild poinsettia; [1]): 40; Plant response rating, Sandbur (sandbur; [2]): 0; Sandbur plant response rating (sandbur; 31 g ai/ha): 0; Sandbur plant response rating (sandbur; 62 g ai/ha): 30; Plant response rating, Sandbur (sandbur; [1]): 35
4 | Cc1cnc(Oc2cccc(C#N)c2-n2cc(C(F)(F)F)cn2)nc1 [Compound 180] | 70 | 90 | 98 | 0 | 30 | 60 | 0 | 15 | 40 | 90 | 98 | 100 | 0 | 0 | 75 | 98 | 98 | 100 | 10 | 15 | Plant response rating, Goosegrass (goosegrass; [3]): 100; Plant response rating, Nutsedge, Yellow (yellow nutsedge; [3]): 75; Plant response rating, Corn (corn; [3]): 65; Plant response rating, Crabgrass, Large (large (Lg) crabgrass; [3]): 100; Plant response rating, Pigweed, Palmer (palmer pigweed; [3]): 90; Plant response rating, Waterhemp (waterhemp; [3]): 100; Plant response rating, Poinsettia, Wild (wild poinsettia; [1]): 65; Plant response rating, Poinsettia, Wild (wild poinsettia; [3]): 98; Sandbur plant response rating (sandbur; 31 g ai/ha): 0; Sandbur plant response rating (sandbur; 62 g ai/ha): 20; Plant response rating, Sandbur (sandbur; [1]): 75; Plant response rating, Sandbur (sandbur; [3]): 90
5 | NC(=S)c1cccc(Oc2ncc(Cl)cn2)c1-n1cc(Cl)cn1 [Compound 292] | 20 | 50 | 70 | 0 | 15 | 35 | 0 | 0 | 0 | 20 | 90 | 100 | 35 | 100 | 100 | 20 | 80 | 100 | 5 | 35 | Plant response rating, Goosegrass (goosegrass; [2]): 0; Plant response rating, Nutsedge, Yellow (yellow nutsedge; [2]): 0; Plant response rating, Corn (corn; [2]): 0; Corn plant response rating (corn; 16 g ai/ha): 0; Plant response rating, Crabgrass, Large (large (Lg) crabgrass; [2]): 0; Crabgrass, Large plant response rating (large (Lg) crabgrass; 16 g ai/ha): 0; Plant response rating, Pigweed, Palmer (palmer pigweed; [2]): 0; Plant response rating, Waterhemp (waterhemp; [2]): 0; Plant response rating, Poinsettia, Wild (wild poinsettia; [2]): 0; Plant response rating, Poinsettia, Wild (wild poinsettia; [1]): 60; Plant response rating, Sandbur (sandbur; [2]): 0; Sandbur plant response rating (sandbur; 31 g ai/ha): 20; Sandbur plant response rating (sandbur; 62 g ai/ha): 0; Plant response rating, Sandbur (sandbur; [1]): 35
